Eleven compounds from US20030134848A1, “Substituted 1-aza-2-imino-heterocycles and their use as nicotinic acetylcholin receptors activators” (priority 2000, published 2003) can be followed below.

T1 sequence (P43681 29-627 limits assumed): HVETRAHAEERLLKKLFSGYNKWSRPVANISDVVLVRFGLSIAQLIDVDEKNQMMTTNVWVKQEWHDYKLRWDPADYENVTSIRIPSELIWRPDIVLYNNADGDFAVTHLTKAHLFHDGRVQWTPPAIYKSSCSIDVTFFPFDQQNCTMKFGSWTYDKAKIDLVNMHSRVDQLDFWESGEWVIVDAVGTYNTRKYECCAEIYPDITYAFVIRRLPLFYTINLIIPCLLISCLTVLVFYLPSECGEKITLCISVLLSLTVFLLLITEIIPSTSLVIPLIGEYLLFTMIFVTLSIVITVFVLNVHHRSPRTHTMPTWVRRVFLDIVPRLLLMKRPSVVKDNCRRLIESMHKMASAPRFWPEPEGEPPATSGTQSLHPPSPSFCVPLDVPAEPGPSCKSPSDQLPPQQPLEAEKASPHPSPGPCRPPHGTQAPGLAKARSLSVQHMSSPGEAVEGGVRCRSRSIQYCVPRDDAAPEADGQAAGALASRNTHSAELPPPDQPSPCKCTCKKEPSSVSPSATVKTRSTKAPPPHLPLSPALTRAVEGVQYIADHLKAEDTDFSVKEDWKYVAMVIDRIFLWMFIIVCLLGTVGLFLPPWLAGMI
T1 sequence (P17787 26-502): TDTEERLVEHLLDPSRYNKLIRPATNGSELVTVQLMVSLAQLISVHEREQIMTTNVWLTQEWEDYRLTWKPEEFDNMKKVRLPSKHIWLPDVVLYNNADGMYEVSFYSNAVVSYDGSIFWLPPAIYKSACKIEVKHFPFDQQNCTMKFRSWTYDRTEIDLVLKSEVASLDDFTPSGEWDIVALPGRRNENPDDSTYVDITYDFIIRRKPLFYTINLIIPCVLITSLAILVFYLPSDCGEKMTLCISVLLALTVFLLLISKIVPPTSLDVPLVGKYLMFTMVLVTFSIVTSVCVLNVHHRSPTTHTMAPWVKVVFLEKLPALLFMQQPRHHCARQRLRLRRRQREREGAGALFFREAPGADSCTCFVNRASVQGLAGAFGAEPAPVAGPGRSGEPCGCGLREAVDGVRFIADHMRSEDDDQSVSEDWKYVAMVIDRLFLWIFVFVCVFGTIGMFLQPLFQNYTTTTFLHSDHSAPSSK

The first assay concerns the target T1, human α4β2 subtype of nicotinic acetylcholine receptors (Homo sapiens, UniProt P17787+P43681).
T1 construct: expressed in transfected cells; host or cells: Xenopus laevis oocytes injected with hnACh-R α4 and β2 cRNA (pSP64 polyA vector)
The assay can be described thus: Agonist activity at human α4β2 nicotinic acetylcholine receptors expressed in Xenopus oocytes (membrane potential holding method). Type of assay: cell-based. The note with it: 100 μM test compound vs response at 10 μM acetylcholine (100%). The procedure: The agonist effect in human α4β2 subtype of nicotinic acetylcholine receptors are examined by using human nicotinic acetylcholine receptors prepared in oocytes of Xenopus laevis, which is injected with cRNA from the corresponding cloning cDNA of human α4 and β2 subunits of nicotinic acetylcholine receptors, and to measure the expression of the electric response by adding the test compounds to perfusion solution by means of membrane potential holding method.
The agonist activities of the compounds of the present invention at human 4β2 subtype of nicotinic acetylcholine receptors was evaluated by the following method, which was modified method described by Papke R. L., Thinschmidt J. S., Moulton B. A., Meyer E. M. & Poirier A., Br. J. Pharmacol., 120, 429-438 (1997).
(1) Preparation of cRNA of Human α4β2 Subtype of Nicotinic Acetylcholine Receptors
The cloning of human nicotinic acetylcholine receptor (hnACh-R) α4 cDNA and hnAC-R β2 cDNA were performed, in accordance with the conventional manners, by synthesizing the each DNA primers corresponding to the sequences of hnACh-R α4 cDNA and hnACh-R β2 cDNA [Monteggia L. M. et al., Gene, 155, 189-193 (1995); and Anand R., & Lindstrom J., Nucl. Acids Res., 18, 4272 (1990)], and obtained hnACh-R α4 cDNA and hnACh-R β2 cDNA by polymerase chain reaction (PCR), respectively. The obtained hnACh-R α4 cDNA and hnACh-R β2 cDNA were inserted to the cRNA expression vector (pSP64 polyA) having SP6 RNA promoter to construct hnACh-R α4/pSP64 polyA and hnACh-R β2/pSP64 polyA, respectively. After cutting from expression vector by restriction enzyme (EcoRI), transcription was performed by affecting SP6 RNA polymerase in the presence of cap analogues to obtain hnACh-R α4 cRNA and hnACh-R β2 cRNA, respectively.
(2) Expression of Human α4β2 Subtype Nicotinic Acetylcholine Receptors in Xenopus oocytes
Oocytes were purchased from Kitanihonseibutsukyohzai Co., Ltd., which were already enucleated from Xenopus laevis, and used in this experiment.
The oocytes were treated with collagenase (Sigma type I; 1 mg/ml) in calcium-free modified Birth's solution (88 mM of NaCl, 1 mM of KCl, 2.4 mM of NaHCO3, 0.82 mM of MgSO4, 15 mM of HEPES, pH 7.6) under gently stirring at room temperature for 90 minutes, and washed out the enzyme from the tissue. Then, oocytes were separated from ovarian follicle by tweezers, and isolated oocytes were placed in antibiotics containing modified Birth's solution (88 mM of NaCl, 1 mM of KCl, 2.4 mM of NaHCO3, 0.82 mM of MgSO4, 15 mM of HEPES, pH 7.6, and 0.1 v/v % of mixture solution containing of penicillin and streptomycin for incubation; Sigma Co.). […] In oocytes, heterogeneous quintuple [(α4)2(β2)3] was composed by translation of injected cRNAs, and ion channel receptors were constructed on cell membrane.
(3) Agonist Activities at Human α4β2 Subtype of Nicotinic Acetylcholine Receptors
The recordings of responses at human α4β2 subtype of nicotinic acetylcholine receptors by means of membrane potential holding method were performed as follow. […] The membrane electric potentials were held at −50 mV by mean of the two electric membranes potential holding method (CEZ-1250; Nihon Kohden Co.). Test compounds were added to the perfusion solution, and recorded the peak strength of induced inward current. In order to normalize the responses of test compounds, the responses with acetylcholine (Ach) were recorded before and after application of the test compounds. Generally in the oocytes just after isolated, the response of intrinsic muscarinic acetylcholine receptors, which is inward electric current caused by activation of calcium dependence chloride ion channels with increase of the intracellular calcium concentration by stimulation of receptors, is observed.
On to `N=C1NCCCN1CCc1ccc(Cl)nc1` [Compound 12, 1-[2-(6-chloro-3-pyridyl)ethyl]-2-imino-1,2,3,4,5,6-hexahydro-pyrimidine], for which the “control % by response at 100 μM of the test compounds” value is “(8%)”. As for `Nc1nccn1CCc1cnccn1` [Compound 31, 2-amino-1-[2-(2-pyrazinyl)ethyl]imidazole], the “control % by response at 100 μM of the test compounds” value is given as “(15%)”.

Still in this assay, the particulars now being: Xenopus oocytes, held at −50 mV, peak inward current; read-out: Agonist activity (ED50).
With `Nc1nccn1CCc1cccnc1` [Compound 14, 2-amino-1-[2-(3-pyridyl)ethyl]imidazole], the EC50 was 2 µM. Still for that read-out and setting: as for `Nc1nccn1CCc1ccnnc1` [Compound 34, 2-amino-1-[2-(4-pyridazinyl)ethyl]imidazole], the figure is 170 µM. On to `Cc1ccc(CCn2ccnc2N)cn1` [Compound 11, 2-amino-1-[2-(6-methyl-3-pyridyl)ethyl]imidazole], for which the EC50 was found to be 7.5 µM. As for `Nc1nccn1CCc1cccnn1` [Compound 30, 2-amino-1-[2-(3-pyridazinyl)ethyl]imidazole], the EC50 was 46 µM. With `Cc1cncc(CCn2ccnc2N)c1` [Compound 27, 2-amino-1-[2-(5-methyl-3-pyridyl)ethyl]imidazole], the EC50 came to 6.2 µM.

For the compound `Nc1nccn1CCc1cnc(Cl)c(Cl)c1` [Compound 13, 2-amino-1-[2-(5,6-dichloro-3-pyridyl)ethyl]-imidazole], the EC50 is 2.4 µM. The same measure, in the same setting: as for `Nc1nccn1CCc1cnc(Cl)s1` [Compound 23, 2-amino-1-[2-(2-chloro-5-thiazolyl)ethyl]imidazole], the figure is 13 µM; as for `Nc1nccn1CCc1cncc(Br)c1` [Compound 25, 2-amino-1-[2-(5-bromo-3-pyridyl)ethyl]imidazole], 3 µM; as for `Nc1nccn1CCc1cncnc1` [Compound 29, 2-amino-1-[2-(5-pyrimidyl)ethyl]imidazole], 3.7 µM.
